biological target: T1, human mPGES-1 (Homo sapiens, UniProt O14684); test: Test for mPGES-1 inhibitory activity (microsomal enzyme, PGE2 EIA); format: biochemical; details: microsomes of COS-1 cells transfected with human mPGES-1 cDNA; PGH2 1 μM; 4° C., 4 minutes; PGE2 by EIA; read-out: h mPGES1 IC50
T1 construct: made in house; host or cells: COS-1 cells (transient transfection; microsomal fraction used as enzyme)
T1 sequence (O14684 1-152): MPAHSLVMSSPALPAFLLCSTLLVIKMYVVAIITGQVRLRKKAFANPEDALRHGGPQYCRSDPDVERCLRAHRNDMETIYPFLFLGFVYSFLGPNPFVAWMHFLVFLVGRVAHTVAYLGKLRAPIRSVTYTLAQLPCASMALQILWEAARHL
In short: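 IC50 values were derived from EIA-quantified PGE2 after a 4 min, 4 °C reaction with PGH2 at 1 μM final, stopped with ferric chloride/citric acid. Beforehand, compound (2% DMSO final) sat 15 min at 4 °C with human mPGES-1 microsomes from transiently transfected COS-1 cells. Buffer was sodium phosphate pH 7.2 containing 2.5 mM reduced glutathione and 1 mM EDTA.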

SMILES	IC50
O=c1cc(-c2ccc(C(F)(F)F)cn2)nc(-c2c(C(F)(F)F)ccc(CNS(=O)(=O)c3ccccc3C(F)(F)F)c2F)[nH]1 [Example 269, N-(2-fluoro-3-{6-oxo-4-[5-(trifluoromethyl)pyridin-2-yl]-1,6-dihydropyrimidin-2-yl}-4-(trifluoromethyl)benzyl)-2-(trifluoromethyl)benzenesulfonamide]	7.6 nM
O=c1cc(-c2ccc(C(F)(F)F)cn2)nc(-c2c(C(F)(F)F)ccc(CNS(=O)(=O)c3ccc(-c4ccccc4)cc3)c2F)[nH]1 [Example 271, N-(2-fluoro-3-{6-oxo-4-[5-(trifluoromethyl)pyridin-2-yl]-1,6-dihydropyrimidin-2-yl}-4-(trifluoromethyl)benzyl)-[1,1′-biphenyl]-4-sulfonamide]	76 nM
O=c1cc(C(F)(F)F)nc(-c2c(C(F)(F)F)ccc(CNS(=O)(=O)c3ccccc3C(F)(F)F)c2F)[nH]1 [Example 272, N-{2-fluoro-3-[6-oxo-4-(trifluoromethyl)-1,6-dihydropyrimidin-2-yl]-4-(trifluoromethyl)benzyl}-2-(trifluoromethyl)benzenesulfonamide]	33 nM
O=C(NCc1ccc(C(F)(F)F)c(-c2nc(C(F)(F)F)cc(=O)[nH]2)c1F)c1ccccc1C(F)(F)F [Example 273, N-{2-fluoro-3-[6-oxo-4-(trifluoromethyl)-1,6-dihydropyrimidin-2-yl]-4-(trifluoromethyl)benzyl}-2-(trifluoromethyl)benzamide]	8.4 nM
O=C(NCc1ccc(C(F)(F)F)c(-c2nc(C(F)(F)F)cc(=O)[nH]2)c1F)C1CN(C(=O)Cc2ccc(F)cc2)C1 [Example 276, N-{2-fluoro-3-[6-oxo-4-(trifluoromethyl)-1,6-dihydropyrimidin-2-yl]-4-(trifluoromethyl)benzyl}-1-[2-(4-fluorophenyl)acetyl]azetidine-3-carboxamide]	24 nM
O=C(NCc1ccc(C(F)(F)F)c(-c2nc(C(F)(F)F)cc(=O)[nH]2)c1F)C1CCN(CCc2ccccc2)CC1 [Example 278, N-{2-fluoro-3-[6-oxo-4-(trifluoromethyl)-1,6-dihydropyrimidin-2-yl]-4-(trifluoromethyl)benzyl}-1-phenethylpiperidine-4-carboxamide]	35 nM
O=C(NCc1ccc(C(F)(F)F)c(-c2nc(C(F)(F)F)cc(=O)[nH]2)c1F)C1(c2ccc(Cl)cc2)CCCC1 [Example 281, 1-(4-chlorophenyl)-N-{2-fluoro-3-[6-oxo-4-(trifluoromethyl)-1,6-dihydropyrimidin-2-yl]-4-(trifluoromethyl)benzyl}cyclopentane-1-carboxamide]	45 nM
O=C(Cc1ccc(C(F)(F)F)cc1)NCc1ccc(C(F)(F)F)c(-c2nc(C(F)(F)F)cc(=O)[nH]2)c1F [Example 283, N-{2-fluoro-3-[6-oxo-4-(trifluoromethyl)-1,6-dihydropyrimidin-2-yl]-4-(trifluoromethyl)benzyl}-2-[4-(trifluoromethyl)phenyl]acetamide]	1.5 nM

These reach a lower IC50. Values come first.

IC50	SMILES
< 1 nM	O=C(NCc1ccc(C(F)(F)F)c(-c2nc(C(F)(F)F)cc(=O)[nH]2)c1F)N1CCC(Oc2ccc(Cl)c(Cl)c2)CC1 [Example 258, 4-(3,4-dichlorophenoxy)-N-{2-fluoro-3-[6-oxo-4-(trifluoromethyl)-1,6-dihydropyrimidin-2-yl]-4-(trifluoromethyl)benzyl}piperidine-1-carboxamide]
< 1 nM	O=C(NCc1ccc(C(F)(F)F)c(-c2nc(C(F)(F)F)cc(=O)[nH]2)c1F)N1CCC(Oc2ccc(C(F)(F)F)cc2)CC1 [Example 260, N-{2-fluoro-3-[6-oxo-4-(trifluoromethyl)-1,6-dihydropyrimidin-2-yl]-4-(trifluoromethyl)benzyl}-4-[4-(trifluoromethyl)phenoxy]piperidine-1-carboxamide]
< 1 nM	O=C(NCc1ccc(C(F)(F)F)c(-c2nc(-c3ccc(C(F)(F)F)cn3)cc(=O)[nH]2)c1F)C1CC(OCc2ccccc2)C1 (stereo not shown) [Example 266, 3-(benzyloxy)-N-(2-fluoro-3-{6-oxo-4-[5-(trifluoromethyl)pyridin-2-yl]-1,6-dihydropyrimidin-2-yl}-4-(trifluoromethyl)benzyl)cyclobutane-1-carboxamide]
< 1 nM	O=C(NCc1ccc(C(F)(F)F)c(-c2nc(-c3ccc(C(F)(F)F)cn3)cc(=O)[nH]2)c1F)C1CCN(c2ccc3nccn3n2)CC1 [Example 267, N-(2-fluoro-3-{6-oxo-4-[5-(trifluoromethyl)pyridin-2-yl]-1,6-dihydropyrimidin-2-yl}-4-(trifluoromethyl)benzyl)-1-(imidazo[1,2-b]pyridazin-6-yl)piperidine-4-carboxamide]
< 1 nM	O=C(NCc1ccc(C(F)(F)F)c(-c2nc(C(F)(F)F)cc(=O)[nH]2)c1F)c1cccc(Cl)c1Cl [Example 274, 2,3-dichloro-N-{2-fluoro-3-[6-oxo-4-(trifluoromethyl)-1,6-dihydropyrimidin-2-yl]-4-(trifluoromethyl)benzyl}benzamide]
0.94 nM	O=C(NCc1ccc(C(F)(F)F)c(-c2nc(C(F)(F)F)cc(=O)[nH]2)c1F)C1CCN(C(=O)Cc2ccc(F)cc2)CC1 [Example 275, N-{2-fluoro-3-[6-oxo-4-(trifluoromethyl)-1,6-dihydropyrimidin-2-yl]-4-(trifluoromethyl)benzyl}-1-[2-(4-fluorophenyl)acetyl]piperidine-4-carboxamide]
< 1 nM	O=c1cc(C(F)(F)F)nc(-c2c(C(F)(F)F)ccc(CNC(=O)[C@H]3CC[C@H](c4ccc(Cl)cc4)CC3)c2F)[nH]1 [Example 279, trans-4-(4-chlorophenyl)-N-{2-fluoro-3-[6-oxo-4-(trifluoromethyl)-1,6-dihydropyrimidin-2-yl]-4-(trifluoromethyl)benzyl}cyclohexane-1-carboxamide]
< 1 nM	O=C(NCc1ccc(C(F)(F)F)c(-c2nc(C(F)(F)F)cc(=O)[nH]2)c1F)C1Cc2ccccc2C1 [Example 280, N-{2-fluoro-3-[6-oxo-4-(trifluoromethyl)-1,6-dihydropyrimidin-2-yl]-4-(trifluoromethyl)benzyl}-2,3-dihydro-1H-indene-2-carboxamide]
